test system: at least one muscarinic receptor, M1, M2, M3, M4; assay: Muscarinic modulation activity (Table 3); assay type: cell-based; parameters: key: +++: exhibited muscarinic modulation activity for at least one muscarinic receptor, M1, M2, M3, M4, at a concentration of less than 5 μM; ++: exhibited muscarinic modulation activity for at least one muscarinic receptor, M1, M2, M3, M4, at a concentration of between 30 μM and 5 μM; +: exhibited muscarinic modulation activity for at least one muscarinic receptor, M1, M2, M3, M4, at a concentration of greater than 30 μM; −: were not assayed or did not exhibit muscarinic modulation activity for at least one muscarinic receptor, M1, M2, M3, M4, at the concentration at which the assay was performed; conditions: concentration at which modulation of at least one muscarinic receptor, M1, M2, M3, M4, was exhibited; CHO cells
Procedure: CHO cells expressing muscarinic receptors (M1 to M5) are grown as monolayers in tissue culture flasks at 37° C. in a humidified atmosphere containing 5% CO2 and passaged every 3-5 days. The growth media is Dulbecco's modified eagles medium (DMEM, Gibco Cat#12430-054), containing 25 mM Hepes and supplemented with Fetal Bovine Serum (Hyclone, cat#SH30071.03), 0.1 mM of MEM non-essential amino acids (GIBCO, Cat#11140-050), 1 mM MEM Sodium Pyruvate (GIBCO Cat#11360-070) and 100 units/ml of Penicillin G and 100 μg/ml of Streptomycin (GIBCO Cat#15140-122). The recombinant muscarinic receptor cell lines are grown under antibiotic pressure with media containing 25 μg/ml zeocin and 500 μg/ml G418 (M1-CHO), 4 μg/ml puromycin, 50 μg/ml zeocin and 2.5 μg/ml blasticidin (M2 and M4-CHO) or 50 μg/ml zeocin and 4 μg/ml puromycin (M3 and M5-CHO).
Cells are harvested at 80-90% confluence using Versene (GIBCO Cat#15040-066), collected by centrifugation and seeded 18-24 hrs prior to running the calcium assay at a density of 5,000-10,000 cells/well in […], clear-bottomed 384-well plates (BD Biocoat, poly-D-lysine, Cat#356663). The day of the experiment, the cells are washed with a plate washer (Bioteck Instruments, ELX 405) using bath1 buffer (140-mM NaCl, 4.5-mM KCl, 2-mM CaCl2, 1-mM MgCl2, 10-mM Hepes-Na, 10-mM Glucose, pH 7.4, with NaOH) containing 1 mM Probenecid. Next, the calcium dye Fluo-3 (25 μl/well of Fluo-3 AM at 4 μM, Molecular Probes F-1241, in Bath 1 buffer containing 1 mM Probenecid) is added to the 25 μl of Bath 1 remaining in each well after the plate wash and the dye is loaded at 37° C. in the tissue culture incubator for 60-90 min. The fluorescent dye is removed using the plate washer with Bath 1 containing 1 mM Probenecid, leaving 25 μl/well of this solution after the wash. Alternatively, cells can be loaded with the calcium indicator from Molecular Devices (Calcium 3 Assay Reagents, Cat #R7181) adding 5 μl of a 5× solution dye in Bath 1 containing 1 mM Probenecid (10 ml per dye flask cat#R7182 to generate a solution […]) to 20 μl of the same buffer. After loading for 60 min. the experiment can be run without having to remove the dye.
Compounds are prepared at a 2× fold concentration in a 96-well plate (round bottom, Costar Corning cat#3656), by reconstituting the pre-spotted compounds in bath 1 containing 1 mM probenecid. The final concentration DMSO is 0.5%, and the amount of DMSO is normalized across the assay plate. To determine an agonist action of the compounds on muscarinic receptors, the reconstituted compounds are added (25 μl compound/well) to the cell assay plate (containing 25 μl/well) using the multi-channel robotic system of the FLIPR 3 Instrument (Molecular Devices, Sunnyvale, Calif.). To determine a functional inhibitory action of the compounds on muscarinic receptors, the reconstituted compounds are added (25 μl compound/well) to the assay plate and pre-incubated for 15 min prior to adding 25 μl of Carbachol at 3× the EC80 for each muscarinic subtype. Alternatively, the compounds can be co-applied simultaneously with the agonist. In both assay modes, the fluorescence is recorded for 60 sec (excitation wavelength is […] and emission wavelength 540 nm) using the FLIPR 3 instrument.
The potency, efficacy and selectivity of the muscarinic compounds were evaluated by screening the compound activity across the whole family (M1 to M5 cells).
CHO cells expressing muscarinic receptors (M1 to M5) and containing a gene reporter system β-Lactamase) with transcriptional control mediated by calcium release (NFAT activation). See Zlokarnik, G; Negulescu, P. A.; Knapp, T. E.; Mere, L; Burres, N; Feng, L; Whitney, M; Roemer, K; Tsien, R. Y. Quantitation of transcription and clonal selection of single living cells with β-lactamase as reporter. Science, 1998 Jan. 2, 279(5347):84-8. The cells are grown as monolayers in tissue culture flasks at 37° C. in a humidified atmosphere containing 5% CO2 and passaged every 3-5 days. […]

| Structure (SMILES) | ACTIVITY (muscarinic modulation activity) |
| --- | --- |
| CCOC(=O)N1C2CCC1CC(CN1CCN(c3nccnc3C#N)CC1)C2 (centres unmarked) [Compound 38, 3-[[4-(3-cyanopyrazin-2-yl)piperazin-1-yl]methyl]-8-azabicyclo[3.2.1]octane-8-carboxylic acid ethyl ester] | +++ (exhibited muscarinic modulation activity for at least one muscarinic receptor, M1, M2, M3, M4, at a concentration of less than 5 μM) |
| C1=CC2CC1CC2CN1CCN(c2ccncc2)CC1 (centres unmarked) [Compound 41, 1-(5-bicyclo[2.2.1]hept-2-enylmethyl)-4-(4-pyridyl)piperazine] | +++ (exhibited muscarinic modulation activity for at least one muscarinic receptor, M1, M2, M3, M4, at a concentration of less than 5 μM) |
| N#Cc1cccnc1N1CCN(C2CC3CCC2C3)CC1 (centres unmarked) [Compound 32, 2-(4-norbornan-2-ylpiperazin-1-yl)nicotinonitrile] | + (exhibited muscarinic modulation activity for at least one muscarinic receptor, M1, M2, M3, M4, at a concentration of greater than 30 μM) |
| NC(=O)c1cccnc1N1CCN(C2CC3CCC2C3)CC1 (centres unmarked) [Compound 10, 2-(4-norbornan-2-ylpiperazin-1-yl)nicotinamide] | − |
| Cc1cc(C)nc(N2CCN(C3CC4CCC3C4)CC2)n1 (centres unmarked) [Compound 72, 4,6-dimethyl-2-(4-norbornan-2-ylpiperazin-1-yl)-pyrimidine] | − |
| Clc1cncc(Cl)c1N1CCN(CC2CC3C=CC2C3)CC1 (centres unmarked) [Compound 26, 1-(5-bicyclo[2.2.1]hept-2-enylmethyl)-4-(3,5-dichloro-4-pyridyl)-piperazine] | − |
| CCOC(=O)N1C2CCC1CC(N1CCN(c3nnc(-c4ccccc4)cc3C#N)CC1)C2 (centres unmarked) [Compound 11, 3-[4-(4-cyano-6-phenyl-pyridazin-3-yl)piperazin-1-yl]-8-azabicyclo[3.2.1]octane-8-carboxylic acid ethyl ester] | + (exhibited muscarinic modulation activity for at least one muscarinic receptor, M1, M2, M3, M4, at a concentration of greater than 30 μM) |
| Cc1cccc(N2CCN(CC3CC4C=CC3C4)CC2)n1 (centres unmarked) [Compound 15, 1-(5-bicyclo[2.2.1]hept-2-enylmethyl)-4-(6-methyl-2-pyridyl)-piperazine] | ++ (exhibited muscarinic modulation activity for at least one muscarinic receptor, M1, M2, M3, M4, at a concentration of between 30 μM and 5 μM) |
| Cc1cccnc1N1CCN(C2CC3CCC2C3)CC1 (centres unmarked) [Compound 60, 1-(3-methyl-2-pyridyl)-4-norbornan-2-yl-piperazine] | + (exhibited muscarinic modulation activity for at least one muscarinic receptor, M1, M2, M3, M4, at a concentration of greater than 30 μM) |
| O=[N+]([O-])c1cccnc1N1CCN(C2CC3CCC2C3)CC1 (centres unmarked) [Compound 5, 1-(3-nitro-2-pyridyl)-4-norbornan-2-yl-piperazine] | + (exhibited muscarinic modulation activity for at least one muscarinic receptor, M1, M2, M3, M4, at a concentration of greater than 30 μM) |
| CCOC(=O)N1C2CCC1CC(N1CCN(c3ncccc3C#N)CC1)C2 (centres unmarked) [Compound 12, 3-[4-(3-cyano-2-pyridyl)piperazin-1-yl]-8-azabicyclo[3.2.1]octane-8-carboxylic acid ethyl ester] | +++ (exhibited muscarinic modulation activity for at least one muscarinic receptor, M1, M2, M3, M4, at a concentration of less than 5 μM) |
| Clc1cccnc1N1CCN(CC2CC3C=CC2C3)CC1 (centres unmarked) [Compound 52, 1-(5-bicyclo[2.2.1]hept-2-enylmethyl)-4-(3-chloro-2-pyridyl)-piperazine] | ++ (exhibited muscarinic modulation activity for at least one muscarinic receptor, M1, M2, M3, M4, at a concentration of between 30 μM and 5 μM) |
| CCOC(=O)N1C2CCC1CC(N1CCN(c3ncccc3F)CC1)C2 (centres unmarked) [Compound 30, 3-[4-(3-fluoro-2-pyridyl)piperazin-1-yl]-8-azabicyclo[3.2.1]octane-8-carboxylic acid ethyl ester] | +++ (exhibited muscarinic modulation activity for at least one muscarinic receptor, M1, M2, M3, M4, at a concentration of less than 5 μM) |
| CCOC(=O)N1C2CCC1CC(N1CCN(c3ccc(C(F)(F)F)cn3)CC1)C2 (centres unmarked) [Compound 28, 3-[4-[5-(trifluoromethyl)-2-pyridyl]piperazin-1-yl]-8-azabicyclo[3.2.1]octane-8-carboxylic acid ethyl ester] | +++ (exhibited muscarinic modulation activity for at least one muscarinic receptor, M1, M2, M3, M4, at a concentration of less than 5 μM) |
| N#Cc1nccnc1N1CCN(CC2CC3C=CC2C3)CC1 (centres unmarked) [Compound 70, 3-[4-(5-bicyclo[2.2.1]hept-2-enylmethyl)piperazin-1-yl]pyrazine-2-carbonitrile] | +++ (exhibited muscarinic modulation activity for at least one muscarinic receptor, M1, M2, M3, M4, at a concentration of less than 5 μM) |
| NS(=O)(=O)c1cnccc1N1CCN(CC2CC3CCC2C3)CC1 (centres unmarked) [Compound 55, 4-[4-(norbornan-2-ylmethyl)piperazin-1-yl]pyridine-3-sulfonamide] | ++ (exhibited muscarinic modulation activity for at least one muscarinic receptor, M1, M2, M3, M4, at a concentration of between 30 μM and 5 μM) |
| FC(F)(F)c1cccnc1N1CCN(CC2CC3C=CC2C3)CC1 (centres unmarked) [Compound 69, 1-(5-bicyclo[2.2.1]hept-2-enylmethyl)-4-[3-(trifluoromethyl)-2-pyridyl]-piperazine] | +++ (exhibited muscarinic modulation activity for at least one muscarinic receptor, M1, M2, M3, M4, at a concentration of less than 5 μM) |
| N#Cc1ccc(C(F)(F)F)nc1N1CCN(CC2CC3C=CC2C3)CC1 (centres unmarked) [Compound 53, 2-[4-(5-bicyclo[2.2.1]hept-2-enylmethyl)piperazin-1-yl]-6-(trifluoromethyl)nicotinonitrile] | + (exhibited muscarinic modulation activity for at least one muscarinic receptor, M1, M2, M3, M4, at a concentration of greater than 30 μM) |
| NC(=O)c1cccnc1N1CCN(CC2CC3C=CC2C3)CC1 (centres unmarked) [Compound 6, 2-[4-(5-bicyclo[2.2.1]hept-2-enylmethyl)piperazin-1-yl]nicotinamide] | − |
| CCOC(=O)N1C2CCC1CC(N1CCN(c3ccncc3)CC1)C2 (centres unmarked) [Compound 25, 3-[4-(4-pyridyl)piperazin-1-yl]-8-azabicyclo[3.2.1]octane-8-carboxylic acid ethyl ester] | +++ (exhibited muscarinic modulation activity for at least one muscarinic receptor, M1, M2, M3, M4, at a concentration of less than 5 μM) |

Reference: US7820817B2, “Modulators of muscarinic receptors” (Vertex Pharmaceuticals Incorporated, priority 2004, dated 2010)
